Calls of active or inactive are those of the source. The rule behind the calls is not given here.
Tests used:
MDA-MB-231 [1] = experiment: Antiproliferative activity against human MDA-MB-231 cells assessed as inhibition of cell growth incubated for 24 hrs by CCK8 assay; format: functional, cell-based; details: MDA-MB-231, 24 h
[2] = molecular target: T1, DNA topoisomerase 1 (Homo sapiens) (UniProt P11387); experiment: Inhibition of human topoisomerase 1 mediated relaxation of supercoiled pHOT1 DNA at 5 to 20 uM incubated for 30 mins by agarose gel electrophoresis; details: dose 5-20 µM
T1 sequence (whole entry): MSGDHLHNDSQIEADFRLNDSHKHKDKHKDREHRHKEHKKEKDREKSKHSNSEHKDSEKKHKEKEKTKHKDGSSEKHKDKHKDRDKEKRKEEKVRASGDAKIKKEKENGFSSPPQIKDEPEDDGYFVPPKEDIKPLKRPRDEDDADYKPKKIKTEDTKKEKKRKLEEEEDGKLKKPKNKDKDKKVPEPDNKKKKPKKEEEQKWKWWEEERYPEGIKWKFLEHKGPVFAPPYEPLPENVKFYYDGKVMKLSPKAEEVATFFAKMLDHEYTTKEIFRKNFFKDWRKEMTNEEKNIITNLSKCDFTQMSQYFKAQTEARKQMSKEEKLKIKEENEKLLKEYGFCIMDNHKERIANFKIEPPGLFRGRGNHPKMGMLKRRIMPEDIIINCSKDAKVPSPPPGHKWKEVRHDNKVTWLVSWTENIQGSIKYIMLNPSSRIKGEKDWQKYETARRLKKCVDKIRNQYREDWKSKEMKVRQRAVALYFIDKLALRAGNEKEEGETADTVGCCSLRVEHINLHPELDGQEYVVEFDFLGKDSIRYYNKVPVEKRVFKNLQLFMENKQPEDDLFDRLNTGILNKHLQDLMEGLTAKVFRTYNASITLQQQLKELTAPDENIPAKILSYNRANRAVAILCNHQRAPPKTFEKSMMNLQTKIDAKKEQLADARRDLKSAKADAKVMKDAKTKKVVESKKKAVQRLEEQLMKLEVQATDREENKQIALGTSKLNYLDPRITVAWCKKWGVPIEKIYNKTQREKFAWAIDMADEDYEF

Quadruplex DNA = experiment: Inhibition of c-myc G4-quadruplex DNA transcriptional activity in human MDA-MB-231 cells incubated for 24 hrs by RT-PCR analysis; format: cell-based
[3] = molecular target: T1, DNA topoisomerase 1 (Homo sapiens); experiment: Inhibition of human topoisomerase 1 assessed as DNA intercalation at 1.2 uM using relaxed pHOT-1 DNA as substrate preincubated with DNA for 10 mins followed by enzyme addition and measured after 30 mins by agarose gel electrophoresis; details: time 40.0 min
[4] = Toxicity in human MDA-MB-231 cells xenografted BALB/c mouse assessed as body weight loss at 2.5 mg/kg, ip administered every other day for 20 days; format: organism-based; details: in vivo, 480 h, time 20 day
MDA-MB-231 [5] = experiment: Antitumor activity against human MDA-MB-231 cells xenografted in BALB/c mouse assessed as tumor growth inhibition measured at 2.5 mg/kg, ip administered every other day for 20 days; format: functional; details: time 20.0 day
MDA-MB-231 [6] = experiment: Antiproliferative activity against human MDA-MB-231 cells assessed as inhibition in cell growth at 20 uM incubated for 24 hrs by CCK8 assay; format: functional, cell-based

With `CN1CCN(c2ccc(-c3nc4cc(F)c(F)cc4nc3-c3ccc(N4CCN(C)CC4)cc3)cc2)CC1` the IC50 (MDA-MB-231 [1]) was 1.9 µM, the inhibition [2] was “inactive” and the inhibition (Quadruplex DNA) was “Active”.

For `CN1CCN(c2ccc3c(c2)c2cc(N4CCN(C)CC4)ccc2c2nc4cnccc4nc32)CC1`, the IC50 (MDA-MB-231 [1]) was 17.5 µM, the inhibition [2] was “Active” and the inhibition (Quadruplex DNA) was “inactive”.

For `CN1CCN(c2ccc3c(c2)c2cc(N4CCN(C)CC4)ccc2c2nc4cc5c(cc4nc32)N(C)CCN5C)CC1`, the IC50 (MDA-MB-231 [1]) was 3.1 µM and the inhibition (Quadruplex DNA) was “inactive”.

In the case of `CC[n+]1c(-c2ccccc2)c2cc(N)ccc2c2ccc(N)cc21`, the inhibition [3] is reported as “Active”.

With `CN1CCN(c2ccc3c(c2)c2cc(N4CCN(C)CC4)ccc2c2nc4cc(C(F)(F)F)ccc4nc32)CC1` the IC50 (MDA-MB-231 [1]) was 5.6 µM, the inhibition [2] was “inactive” and the inhibition (Quadruplex DNA) was “inactive”.

In the case of `CN1CCN(c2ccc3c(c2)c2cc(N4CCN(C)CC4)ccc2c2nc4cc(Oc5ccccc5)ccc4nc32)CC1`, the IC50 (MDA-MB-231 [1]) is reported as 2.2 µM, the inhibition [2] is reported as “inactive” and the inhibition (Quadruplex DNA) is reported as “inactive”.

With `COc1cccc2c1C(=O)c1c(O)c3c(c(O)c1C2=O)C[C@@](O)(C(=O)CO)C[C@@H]3O[C@H]1C[C@H](N)[C@H](O)[C@H](C)O1` [DOXORUBICIN] the Activity [4] was “Toxic”, the Activity (MDA-MB-231 [5]) was “Dose-Dependent Effect” and the Activity (MDA-MB-231 [6]) was “Active”.

Source: ChEMBL document CHEMBL5032491, “New Dibenzoquinoxalines Inhibit Triple-Negative Breast Cancer Growth by Dual Targeting of Topoisomerase 1 and the c-MYC G-Quadruplex” (J Med Chem, 2021)
